Source: article PMC10498496, “Design and Synthesis of Poly(2,2′-Bipyridyl) Ligands for Induction of Cell Death in Cancer Cells: Control of Anticancer Activity by Complexation/Decomplexation with Biorelevant Metal Cations” (Inorganic Chemistry, 2023)
Read-outs that look alike come from different tables or passages of the source. Marks after values point to notes of the source that are not given here.

Tests used:
[1] = UV/vis absorption titration, apparent stability constant with Fe^2+; assay type: binding; conditions: ligand 30 μM, DMSO/30 mM HEPES pH 7.4 (7/3), 37 °C, approximate, assuming 1:1 complexation (1:2 complex)
Description: (§1) Although simple comparison of the stability of metal complexes is difficult due to the different units for 1:1 complexation (M^–1) and 1:2 complexation (M^–2), it is likely that the thermodynamic stability of Co^2+-(1)2 and Fe^2+-(1)2 complexes are similar to that of Zn^2+-1, Ni^2+-1, and Cu^2+-1 complexes.[40]
(§2) All reagents and solvents were purchased at the highest commercial quality and were used without further purification. Anhydrous DMF was obtained by distillation from calcium hydride. All aqueous solutions were prepared using deionized and distilled water. Melting points were measured using a Yanaco MP-J3 Micro Melting Point apparatus and are uncorrected. UV/vis absorption spectra were recorded on a JASCO V-630 spectrophotometer at 37 °C. […] The apparent stability constants of metal–ligand complexes (Ks) were calculated by using the Bind Works 1.0 software provided by CSC (Calorimetry Science Corp.), an interactive PC software for the analysis of Binding Isotherms on Isothermal Titration Calorimeters (ITCs), to which the change in absorption values obtained by the UV/vis absorption titrations are input.[62] IR spectra were measured with a PerkinElmer FT-IR spectrophotometer (Spectrum 100) at room temperature. ^1H (300 and 400 MHz) NMR spectra were recorded on a JEOL Always 300 spectrometer and a JEOL Always 400 spectrometer, respectively. […]

[2] = UV/vis absorption titration, apparent stability constant with Cu^2+; assay type: binding; conditions: ligand 30 μM, DMSO/30 mM HEPES pH 7.4, I = 0.1 (NaNO3) (7/3), 37 °C, 1:1 complex
Protocol: (§3) All reagents and solvents were purchased at the highest commercial quality and were used without further purification. Anhydrous DMF was obtained by distillation from calcium hydride. All aqueous solutions were prepared using deionized and distilled water. Melting points were measured using a Yanaco MP-J3 Micro Melting Point apparatus and are uncorrected. UV/vis absorption spectra were recorded on a JASCO V-630 spectrophotometer at 37 °C. The UV/vis absorption titrations of 1 with metal ions were carried out by addition of 10 mM solutions of Zn(NO3)2, NiSO4, Co(NO3)2, Fe(NO3)2, and Al(NO3)3 in H2O and 10 mM solutions of Cu(NO3)2 in DMSO. The apparent stability constants of metal–ligand complexes (Ks) were calculated by using the Bind Works 1.0 software provided by CSC (Calorimetry Science Corp.), an interactive PC software for the analysis of Binding Isotherms on Isothermal Titration Calorimeters (ITCs), to which the change in absorption values obtained by the UV/vis absorption titrations are input.[62] IR spectra were measured with a PerkinElmer FT-IR spectrophotometer (Spectrum 100) at room temperature. ^1H (300 and 400 MHz) NMR spectra were recorded on a JEOL Always 300 spectrometer and a JEOL Always 400 spectrometer, respectively. Luminescence imaging studies were performed using a fluorescent microscope (Biorevo, BZ-9000, Keyence). […]

Jurkat cells = experiment: MTT assay of Jurkat cells, effect of metal ions and incubation time on cytotoxicity of ligands; assay type: cell-based, human; conditions: Homo sapiens, Jurkat, no metal
Protocol: Next, we examined the effect of complexation of 1, 2, BAPTA, and BAPTA-AM with metal ions such as Cu(NO3)2, Zn(NO3)2, FeSO4, Co(NO3)2, and NiSO4 on their cytotoxicity against Jurkat cells. Mixture of ligands and metal ions were incubated for 1 h at 37 °C, and added to Jurkat cells for incubation for 12, 24, and 48 h at [ligand] = 0.78–25 μM and [M^2+] = 1.71–37.5 μM ([ligand]: [M^2+] = 1:1.5). After that, MTT assays were carried out, as shown in Figure S3 of the Supporting Information.
IMR-90 cells in DMEM medium with 10% FBS (1.5 × 10^5 cells/mL) were seeded in to 96 well plates and incubated for 24 h at 37 °C, MTT assays with poly(bpy) ligands and their metal complexes (0–100 μM), cisplatin (0–100 μM), and actinomycin D (0–10 μM) were performed following the same procedure described above. These experiments were carried out at least three times. • (b) MTT assay in the presence of a caspase inhibitor. Jurkat cells were pre-treated with Z-VAD-fmk (15 μM) for 3 h, a general caspases inhibitor, followed by the treatment with 1 (1 μM), BABTA-AM (12.5 μM) and cisplatin (50 μM), respectively, for 24 h, and then MTT assay was carried out as described above. • (c) For evaluation of the effect of metal ions on the cytotoxicity of 1, 2, BAPTA, and BAPTA-AM, these ligands were incubated with metal ions such as Cu(NO3)2, Zn(NO3)2, FeSO4, Co(NO3)2, and NiSO4 for 1 h, respectively, and added to Jurkat cells. The whole mixtures were incubated for 12, 24, and 48 h at [ligand] = 0.78–25 μM and at [M^2+] = 1.71–37.5 μM ([ligand]/[M^2+] = 1:1.5). The MTT assays were conducted as described above.

[3] = UV/vis absorption titration, apparent stability constant with Co^2+; assay type: binding; conditions: ligand 30 μM, DMSO/30 mM HEPES pH 7.4 (7/3), 37 °C, approximate, assuming 1:1 complexation (1:2 complex)
Description: as §1, §2

[4] = UV/vis absorption titration, apparent stability constant with Ni^2+; assay type: binding; conditions: 37 °C, 1:1 complex
Protocol: as §3

[5] = UV/vis absorption titration, apparent stability constant with Al^3+; assay type: binding; conditions: ligand 30 μM, DMSO/30 mM HEPES pH 7.4, I = 0.1 (NaNO3) (7/3), 37 °C
Description: as §1, §2

[6] = UV/vis absorption titration, apparent stability constant with Zn^2+; assay type: binding; conditions: 37 °C, 1:1 complex
Protocol: as §3

[7] = ligand 30 μM, DMSO/30 mM HEPES pH 7.4, I = 0.1 (NaNO3) (7/3)

apparent stability constant log Ks with Fe(NO3)2 [1]: >5.5 ^b (1:2 complex)
apparent stability constant log Ks with Cu(NO3)2 [2]: 7.29 ± 0.02 (1:1 complex)
apparent stability constant log Ks with Co(NO3)2 [3]: >6 ^b (1:2 complex)
Kd ([4]; DMSO/30 mM HEPES pH 7.4 (7/3), read-out: dissociation constant Kd (= 1/Ks) of Ni^2+ complex): 610 ± 20 nM
apparent stability constant log Ks with NiSO4 [4, 7]: 6.21 ± 0.01 (1:1 complex)
apparent stability constant log Ks with Al(NO3)3 [5]: <1
Kd ([6]; DMSO/30 mM HEPES pH 7.4 (7/3), read-out: dissociation constant Kd (= 1/Ks) of Zn^2+ complex): 280 ± 10 nM
apparent stability constant log Ks with Zn(NO3)2 [6, 7]: 6.56 ± 0.02 (1:1 complex)
Structure (SMILES): c1ccc(-c2ccc(OCc3cc(COc4ccc(-c5ccccn5)nc4)cc(COc4ccc(-c5ccccn5)nc4)c3)cn2)nc1 [compound 1, 1,3,5-Tris(([2,2′-Bipyridin]-5-yloxy)methyl)benzene]
EC50 (Jurkat cells; incubation 12 h (Figure 9), read-out: EC50 against Jurkat cells, metal-free ligand): ~9000 nM
EC50 (Jurkat cells; incubation 24 h (Figure 9b), read-out: EC50 against Jurkat cells, ligand alone): 137 nM
EC50 (Jurkat cells; incubation 48 h (Figure 9, S4), read-out: EC50 against Jurkat cells, metal-free ligand): ~60 nM
